Test results: patent US20090269770A1, “METHODS FOR EVALUATION PROGNOSIS AND FOLLOW-UP OF DRUG TREATMENT OF PSYCHIATRIC DISEASES OR DISORDERS” (priority 2008, published 2009)

Tested on: PMC from schizophrenic patients
Assay: Real-time RT-PCR of IL8Rα, CCR1, CCR7, RGS7 mRNAs in PMC (6 patients)
Assay type: in vivo, human
Method: FIGS. 1A-1D show real-time RT-PCR analysis of CCR1 (1A), CCR7 (1B), IL8Ra (1C) and RGS7 (1D) mRNAs in PMCs from schizophrenic patients treated with an antipsychotic drug combined with the antidepressant agent fluvoxamine. Fluvoxamine (100 mg/day) was added in an open study format to the constant antipsychotic treatment of 6 patients suffering from chronic schizophrenia with persistent negative symptoms. Total RNA, isolated from PMCs of these patients at baseline (day 0, BL) as well as following 3 and 6 weeks (3W and 6W, respectively) of the combined treatment, was reverse transcribed. cDNA was amplified in real-time PCR using suitable primers for CCR1, CCR7, IL8Ra and RGS7, as described in the Experimental section hereinafter. The relative expression level of a given mRNA was assessed by normalizing to the reference gene peptidylprolyl isomerase B (cyclophilin B, PPIB). For each patient, the expression level of each one of the genes at baseline was arbitrarily set as 1, and the gene expression levels at 3 and 6 weeks were calculated relative to baseline. Lines connecting points indicate samples of the same patient. Horizontal lines indicate group means. Student's t-test *p<0.05; **p<0.01 for 3 or 6 weeks of fluvoxamine add-on compared with baseline.
Two μg of total RNA were denatured and reverse transcribed using random hexanucleotides (0.5 μg/μl) as previously described (Chertkow et al., 2006). Real-time quantitative assessment was performed using LightCycler with FastStart DNA Master SYBR Green I ready-to use PCR mix kits according to the manufacture's protocol (Roche Diagnostics, Mannheim, Germany). Forty ng cDNA was amplified per sample. Each experimental set included one reaction with water as template to control for cross contamination. Amplified products were visualized on 1.5% agarose gel. The sequences of the primers, the experimental conditions and the melting temperature of the products are described in Table 2 hereinafter. The results were analyzed in real-time on the provided program of the LightCycler and normalized against a reference gene in order to correct sample-to-sample variation. […] Expression stability of these genes was determined in our samples with ‘Normfinder’ Excel applet (Andersen et al., 2004); PPIB was chosen as the reference gene for normalization. […]
The biochemical data were analyzed by one way analysis of variance (ANOVA) followed by Dunnett's test. […] Clinical response was assessed with repeated measure ANOVA.
In this study, the significant gene expression changes in the PMC of schizophrenic patients, observed in the customized array and shown in Example 1, were verified by real-time RT-PCR. […] The expression level of each candidate was assessed in all samples.

**Q.** `COCCCC/C(=N\OCCN)c1ccc(C(F)(F)F)cc1` [fluvoxamine] was tested. Which “CCR7 mRNA expression” value (3 and 6 weeks, among the patients) did it give?
**A.** Its value is “did not show a consistent trend”.

**Q.** And the “IL8Rα mRNA expression” value (after 3 and 6 weeks of add-on treatment vs initial level, normalized to PPIB)?
**A.** Its value is “reduced significantly”.

**Q.** What about the “RGS7 mRNA expression” value (after 6 weeks) of the same compound?
**A.** Its value is “significantly reduced”.

**Q.** What about the “CCR1 mRNA expression” value (at both time points (3 and 6 weeks), in 5 out of 6 patients) of the same compound?
**A.** The value was “reduced”.
